Test results published in article PMC11413854, “Reversible Control of Native GluN2B-Containing NMDA Receptors with Visible Light” (ACS Chemical Neuroscience, 2024).
Where two headings read alike, the source gives them in different places.

Target: T1, GluN1/GluN2B NMDA receptors (UniProt P35439+Q01097)
T1 construct: expressed in transfected cells; host or cells: Xenopus laevis oocytes (nuclear cDNA injection)
Experiment: TEVC electrophysiology on Xenopus oocytes expressing wt GluN1/GluN2B NMDARs
Assay type: cell-based, rat GluN1, mouse GluN2B
Settings: for Relative current for theoretical DRC 9% trans / Relative current for theoretical DRC 18% trans / remaining activity at 0.03 µM / remaining activity at 0.1 µM / remaining activity at 0.3 µM / remaining activity at 2 µM: GluN1/GluN2B wt; for Relative current for theoretical DRC 9% trans: theoretical for 350 nm PSS; for Relative current for theoretical DRC 18% trans: theoretical for 365 nm PSS; for remaining activity at 0.03 µM / remaining activity at 0.1 µM / remaining activity at 0.3 µM / remaining activity at 2 µM: Sup. Fig. 3F, read-out: Relative current (IOpto/I0); for remaining activity at 0.03 µM: [OptoNAM-3] 0.03 µM; for remaining activity at 0.1 µM: [OptoNAM-3] 0.1 µM
From the text: The activity of OptoNAM-3 was functionally monitored by electrophysiology on Xenopus oocytes (see Methods). To assess the light-dependent effect, we tested the activities of the dark PSS (mostly trans) and the UV PSS (mostly cis, see above) separately. For each concentration, we prepared a solution divided into two samples: one in which the compound was kept in the dark for the duration of the experiment (dark PSS state); and the other that was preilluminated with either 350 or 365 nm light (350 or 365 nm PSS) and then kept away from the light for the duration of the experiment in order to avoid photoisomerization of the compounds by ambient light (see Methods). […] We generated dose–response curves of OptoNAM-3 dark and UV PSS on wild-type (wt) GluN1/GluN2B NMDA receptors (Figure 3A) in the presence of saturating concentrations of agonists (100 μM glutamate and glycine).
We used cDNA coding for rat GluN1–1a (named GluN1 herein) (GenBank: U08261.1), rat GluN2A (GenBank: D13211.1), mouse GluN2B (GenBank: D10651.2), rat GluA1 flop (GenBank: M36418.2), and rat Myc-GluA2(Q)-flip (GenBank: AF164344.1) cloned into pcDNA3-based expression plasmids. GluK2 (GenBank: Z11548.1) corresponds to the fully RNA-edited version.[80] The GluN2B-ΔNTD construct is from ref[45] and GluN2B–N615K is from ref[81]. Single mutants GluN2B-Q110G and GluN1-L135H were from ref[19]. The GluA2 cDNA contains a Myc tag ([…]) fused between the signal peptide and the N-terminus sequences, and the GluA2 subunit is […] for its Q/R/N site (GluA2(Q)) to allow permeation of homomeric GluA2 receptors.[2] cDNAs coding for rat GluN2C (GenBank: M91563.1) and GluN2D subunits (GenBank: L31611.1) were in prK5 plasmids.
Oocytes from Xenopus laevis were used for heterologous expression of recombinant NMDA receptors studied using a two-electrode voltage clamp (TEVC). Female Xenopus laevis were housed and ovary bags harvested according to the European Union guidelines (husbandry authorizations #C75–05–31 and #D75–05–31; project authorizations #05137.02; and Apafis #28867–2020121814485893). Fragments of ovary bags were also purchased from the “Centre de Ressources Biologiques Xenopes” (now TEFOR, Paris Saclay, France) and from the European Xenopus Resource Center (EXRC, Portsmouth, UK). Xenopus laevis oocytes were harvested and prepared as previously described in ref[82].
Expression of recombinant NMDA receptors was obtained by oocyte nuclear coinjection of 37 nL of a mixture of cDNAs (at 30 ng/μL) coding for GluN1–1a and various GluN2 subunits (ratio 1:1). The protocol in ref[43] was followed for the expression of GluN1/GluN2A/GluN2B triheteromers. The oocytes were transferred in 96-well plates filled with Barth solution (in mM: 88 NaCl, 1 KCl, 0.33 Ca(NO3)2, 0.41 CaCl2, 0.82 MgSO4, 2.4 NaHCO3, and 7.5 HEPES, pH adjusted to 7.3 with NaOH), supplemented with gentamicin ([…]) and 50 μM APV, a selective NMDA receptor antagonist. Plates were then stored at 18 °C for 24 h for GluN1/GluN2A expression and for 48––72 h for the expression of GluN1/Glu2B, GluN1/GluN2A/GluN2B, and mutants.
TEVC recordings were performed 1–3 days following injection. TEVC recordings were performed using an Oocyte Clamp amplifier OC-725 (Warner Instruments) and computer-controlled via a 1440A Digidata (Molecular Devices). Currents were sampled at 100 Hz and low-pass-filtered at 20 Hz using an 8-pole Bessel filter (900 Series, Frequency Devices Inc.).

[1] = OptoNAM-3 dark PSS (trans) + 0.2 µM ifenprodil
[2] = OptoNAM-3 dark PSS (trans), no ifenprodil
[3] = preilluminated in solution, Xenopus oocytes

T1 sequence (Q01097 27-1482, other chains not shown): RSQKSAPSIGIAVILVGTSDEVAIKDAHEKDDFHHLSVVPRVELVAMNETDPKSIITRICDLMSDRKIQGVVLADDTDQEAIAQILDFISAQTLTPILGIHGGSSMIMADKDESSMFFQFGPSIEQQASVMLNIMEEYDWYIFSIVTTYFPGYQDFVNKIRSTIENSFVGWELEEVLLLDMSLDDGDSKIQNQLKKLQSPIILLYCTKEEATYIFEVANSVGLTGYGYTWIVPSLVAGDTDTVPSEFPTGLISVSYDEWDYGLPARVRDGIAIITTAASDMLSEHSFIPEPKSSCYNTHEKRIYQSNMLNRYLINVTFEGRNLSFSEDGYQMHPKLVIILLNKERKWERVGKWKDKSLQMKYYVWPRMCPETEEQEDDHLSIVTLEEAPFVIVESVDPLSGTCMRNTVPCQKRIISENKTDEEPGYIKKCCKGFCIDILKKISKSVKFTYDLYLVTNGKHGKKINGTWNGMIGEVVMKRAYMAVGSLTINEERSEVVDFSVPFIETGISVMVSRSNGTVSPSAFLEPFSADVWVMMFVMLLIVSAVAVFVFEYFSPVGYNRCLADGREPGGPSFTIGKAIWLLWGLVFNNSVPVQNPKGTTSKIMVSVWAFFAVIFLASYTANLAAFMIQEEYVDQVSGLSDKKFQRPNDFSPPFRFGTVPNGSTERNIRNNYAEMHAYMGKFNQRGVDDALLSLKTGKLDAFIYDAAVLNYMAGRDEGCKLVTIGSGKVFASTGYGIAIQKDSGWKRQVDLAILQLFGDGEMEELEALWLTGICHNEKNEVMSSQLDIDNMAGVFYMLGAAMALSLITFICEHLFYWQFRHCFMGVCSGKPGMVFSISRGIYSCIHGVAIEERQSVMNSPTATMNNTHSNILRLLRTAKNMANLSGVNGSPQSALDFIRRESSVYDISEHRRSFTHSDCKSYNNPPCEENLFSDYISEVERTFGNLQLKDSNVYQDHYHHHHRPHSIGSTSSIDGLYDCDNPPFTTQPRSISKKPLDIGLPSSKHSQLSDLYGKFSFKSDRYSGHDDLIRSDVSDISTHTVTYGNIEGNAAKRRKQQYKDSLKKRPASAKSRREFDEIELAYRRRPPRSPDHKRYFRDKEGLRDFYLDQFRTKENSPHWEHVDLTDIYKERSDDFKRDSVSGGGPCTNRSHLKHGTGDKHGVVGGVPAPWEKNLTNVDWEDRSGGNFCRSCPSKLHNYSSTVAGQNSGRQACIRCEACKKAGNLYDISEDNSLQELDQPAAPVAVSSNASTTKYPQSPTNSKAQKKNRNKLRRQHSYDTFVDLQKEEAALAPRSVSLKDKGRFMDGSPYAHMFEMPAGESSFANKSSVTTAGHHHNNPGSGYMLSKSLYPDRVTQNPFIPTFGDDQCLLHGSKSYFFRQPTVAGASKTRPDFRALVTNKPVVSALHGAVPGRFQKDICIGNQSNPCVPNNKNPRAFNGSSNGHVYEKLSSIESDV

c1ccc(/N=N/c2ccc(CCNc3ccncc3)cc2)cc1 [OptoNAM-3, (E)-N-(4-(Phenyldiazenyl)phenethyl)pyridin-4-amine]
Relative current for theoretical DRC 9% trans ([OptoNAM-3] 1 µM): 0.775 | Relative current for theoretical DRC 9% trans ([OptoNAM-3] 2 µM): 0.656 | Relative current for theoretical DRC 9% trans ([OptoNAM-3] 3 µM): 0.570 | Relative current for theoretical DRC 9% trans ([OptoNAM-3] 5 µM): 0.452 | Relative current for theoretical DRC 18% trans ([OptoNAM-3] 0.025 µM): 0.980 | Relative current for theoretical DRC 18% trans ([OptoNAM-3] 0.05 µM): 0.965 | Relative current for theoretical DRC 18% trans ([OptoNAM-3] 0.125 µM): 0.924 | Relative current for theoretical DRC 18% trans ([OptoNAM-3] 0.22 µM): 0.880 | Relative current for theoretical DRC 18% trans ([OptoNAM-3] 0.3 µM): 0.848 | Relative current for theoretical DRC 18% trans ([OptoNAM-3] 0.5 µM): 0.775 | Relative current for theoretical DRC 18% trans ([OptoNAM-3] 1 µM): 0.656 | Relative current for theoretical DRC 18% trans ([OptoNAM-3] 2 µM): 0.500 | Relative current for theoretical DRC 18% trans ([OptoNAM-3] 3 µM): 0.416 | Relative current for theoretical DRC 18% trans ([OptoNAM-3] 5 µM): 0.307 | Relative current for theoretical DRC 18% trans ([OptoNAM-3] 30 µM): 0.073 | remaining activity at 0.03 µM [1]: 93.3% | remaining activity at 0.1 µM [1]: 89% | remaining activity at 0.3 µM (OptoNAM-3 dark PSS (trans) + 0.2 µM ifenprodil, [OptoNAM-3] 0.3 µM): 77.3% | remaining activity at 2 µM (OptoNAM-3 dark PSS (trans) + 0.2 µM ifenprodil, [OptoNAM-3] 2 µM): 32.6% | remaining activity at 0.03 µM [2]: 95.1% | remaining activity at 0.1 µM [2]: 84.9% | remaining activity at 0.3 µM (OptoNAM-3 dark PSS (trans), no ifenprodil, [OptoNAM-3] 0.3 µM): 63.5% | remaining activity at 2 µM (OptoNAM-3 dark PSS (trans), no ifenprodil, [OptoNAM-3] 2 µM): 14.7% | Mean Relative current (IOpto/I0) ([OptoNAM-3] 0.025 µM, 365 nm PSS): 0.933 | Mean Relative current (IOpto/I0) ([OptoNAM-3] 0.025 µM, dark PSS (trans)): 0.887 | Mean Relative current (IOpto/I0) ([OptoNAM-3] 0.050 µM, 365 nm PSS): 0.910 | Mean Relative current (IOpto/I0) ([OptoNAM-3] 0.050 µM, dark PSS (trans)): 0.827 | Mean Relative current (IOpto/I0) ([OptoNAM-3] 0.125 µM, 350 nm PSS): 0.907 | Mean Relative current (IOpto/I0) ([OptoNAM-3] 0.125 µM, 365 nm PSS): 0.912 | Mean Relative current (IOpto/I0) ([OptoNAM-3] 0.125 µM, dark PSS (trans)): 0.758 | Mean Relative current (IOpto/I0) ([OptoNAM-3] 0.220 µM, 365 nm PSS): 0.880 | Mean Relative current (IOpto/I0) ([OptoNAM-3] 0.220 µM, dark PSS (trans)): 0.592 | Mean Relative current (IOpto/I0) ([OptoNAM-3] 0.300 µM, 350 nm PSS): 0.918 | Mean Relative current (IOpto/I0) ([OptoNAM-3] 0.300 µM, 365 nm PSS): 0.841 | Mean Relative current (IOpto/I0) ([OptoNAM-3] 0.300 µM, dark PSS (trans)): 0.581 | Mean Relative current (IOpto/I0) ([OptoNAM-3] 0.470 µM, 350 nm PSS): 0.900 | Mean Relative current (IOpto/I0) ([OptoNAM-3] 0.500 µM, 365 nm PSS): 0.666 | Mean Relative current (IOpto/I0) ([OptoNAM-3] 1.000 µM, 350 nm PSS): 0.860 | Mean Relative current (IOpto/I0) ([OptoNAM-3] 1.000 µM, 365 nm PSS): 0.644 | Mean Relative current (IOpto/I0) ([OptoNAM-3] 1.000 µM, dark PSS (trans)): 0.307 | Mean Relative current (IOpto/I0) ([OptoNAM-3] 2.000 µM, 350 nm PSS): 0.656 | Mean Relative current (IOpto/I0) ([OptoNAM-3] 2.000 µM, 365 nm PSS): 0.433 | Mean Relative current (IOpto/I0) ([OptoNAM-3] 2.000 µM, dark PSS (trans)): 0.141 | Mean Relative current (IOpto/I0) ([OptoNAM-3] 3.000 µM, 350 nm PSS): 0.613 | Mean Relative current (IOpto/I0) ([OptoNAM-3] 3.000 µM, 365 nm PSS): 0.375 | Mean Relative current (IOpto/I0) ([OptoNAM-3] 3.000 µM, dark PSS (trans)): 0.098 | Mean Relative current (IOpto/I0) ([OptoNAM-3] 5.000 µM, 350 nm PSS): 0.446 | Mean Relative current (IOpto/I0) ([OptoNAM-3] 5.000 µM, 365 nm PSS): 0.267 | Mean Relative current (IOpto/I0) ([OptoNAM-3] 5.000 µM, dark PSS (trans)): 0.092 | Mean Relative current (IOpto/I0) ([OptoNAM-3] 30.000 µM, 365 nm PSS): 0.034 | Mean Relative current (IOpto/I0) ([OptoNAM-3] 30.000 µM, dark PSS (trans)): 0.00423 | IC50 (control curve of the ifenprodil competition experiment, read-out: IC50 in the dark in absence of ifenprodil): 460 ± 60 nM | increase of IC50 by 0.2 µM ifenprodil (dark): ~ 2 fold | IC50 (dark PSS (trans), 100 µM glutamate + glycine, Xenopus oocytes, read-out: IC50 on GluN1/GluN2B receptors in the dark): 380 ± 30 nM | IC50 (dark PSS (trans), Xenopus oocytes, read-out: IC50 on GluN1/GluN2B receptors in the dark): 380 nM | UV/dark IC50 ratio (350 nm PSS vs dark) [3]: 11.5 fold | UV/dark IC50 ratio (365 nm PSS vs dark) [3]: 4.5 fold | IC50 (range over HEK cells and Xenopus oocytes, read-out: IC50 in the dark (trans isomer)): 150 to 380 nM | activity of the cis isomer on GluN1/GluN2B NMDARs (theoretical dose-response curve of a pure cis population calculated from 365 and 350 nm PSS): no inhibitory activity
